Results taken from patent US20110059081A1, “METHODS AND COMPOSITIONS FOR THE TREATMENT OF RECEPTOR TYROSINE KINASE MEDIATED DISEASES OR DISORDERS” (QUINTILES TRANSNATIONAL CORP., priority 2009, published 2011).

Legend:
Type in all cases: cell-based
[1] = system: MAPK signaling (pAKT, pErk1/2); experiment: Western blot of pAKT and pErk1/2 in KRAS mutant A549 cells treated with EGF, Methotrexate, C225 or combination
Description: For Methotrexate treatments, A549 lung tumor cells were treated with 1.0 μM Methotrexate in full serum media for 24 hours followed by withdrawal of Methotrexate and serum starvation (1.0% FBS) for 48 hours in the absence or presence of 5 ng/ml EGF added for the final 10 minutes before harvest of the cells.

mutant Ras = experiment: Immunocytochemistry staining for RAS in A549 lung tumor cells; conditions: A549 lung tumor cell line, 1.0 micromolar, 48 hours
Description: In an exemplary method, the A549 lung tumor cell line was treated for 48 hours with 1.0 micromolar Methotrexate followed by immunocytochemistry staining for RAS on slides.

MAPK signaling (pErk1/2) = experiment: Western blot of pErk1/2 (MAPK signaling) in A549 cells treated with Methotrexate, with or without EGF; conditions: as little as 1.0 μM for 24 hours, then serum starvation 48 hours, with or without 10 ng/ml EGF for final 10 minutes (FIG. 3)
Description: Additionally, in vitro cell signaling studies were conduced to examine MAPK signaling in RAS mutant cells treated with Methotrexate. For Methotrexate treatments, A549 lung tumor cells were treated with 1.0 or 10.0 μM Methotrexate in full serum media for 24 hours followed by withdrawal of Methotrexate and serum starvation (1.0% FBS) for 48 hours in the absence or presence of 10 ng/ml EGF added for the final 10 minutes before harvest of the cells. Next, whole cell extracts were isolated for Western blot analysis of pErk1/2 and pAkt. The presence of β-actin served as an internal control for loading differences between lanes.

EGF: epidermal growth factor used to stimulate A549 cells (NSDSECPLSHDGYCLHDGVCMYIEALDKYACNCVVGYIGERCQYRDLKWWELR; Epidermal growth factor; UniProt P01133 971-1023, looked up)
activation of the MAPK pathway (pErk1/2 induction) ([1]; EGF stimulation 5 ng/ml for final 10 minutes): potently activated

CN(Cc1cnc2nc(N)nc(N)c2n1)c1ccc(C(=O)N[C@@H](CCC(=O)O)C(=O)O)cc1 [Methotrexate]
overall abundance of mutant Ras (mutant Ras; vs untreated cells (FIGS. 1 and 2)): diminished
localization of mutant Ras (mutant Ras; vs untreated cells (diffuse and at the membrane)): mislocalization from the plasma membrane resulting in highly cytoplasmic staining of mutant Ras
basal and EGF-induced pErk1/2 levels (MAPK signaling (pErk1/2)): reduced both basal and EGF-induce pErk1/2 levels
inhibition of pErk1/2 ([1]; EGF stimulation (5 ng/ml), agent alone: 1.0 μM Methotrexate or C225 up to 25 μg/ml): only slightly inhibited
amount of detectable pAKT and pErk1/2 ([1]; agent by itself (FIG. 4)): slight reduction
